Measured values published in ChEMBL document CHEMBL1150450, “Synthesis and antiangiogenic activity of new carbohydrate derivatives” (Bioorg Med Chem Lett, 1996).
Where “and” joins values, the source holds several entries; their conditions need not be identical. Equal values may be shown once.

system: A-431; assay: In vitro antiproliferative effect against A431 human epidermoid carcinoma cells; format: functional, cell-based; conditions: Homo sapiens, A-431

First: CO[C@@H]1[C@H](OC(=O)NC(=O)CCl)CO[C@]2(COC(=O)O2)[C@@]1(O)CCCCCc1ccccc1
Second: CO[C@@H]1[C@H](OC(=O)NC(=O)CCl)CO[C@]2(COC(=O)O2)[C@]1(CCCCCc1ccccc1)OC(=O)NC(=O)CCl
The IC50 of the first is 5.5-fold higher: 11 µM for the first, 2 µM for the second. The second is the more potent here.

`CNC(=O)O[C@@H]1CO[C@]2(COC(C)(C)O2)[C@@](O)(C2(C)CO2)[C@@H]1OC` (some centres not stated) and `CO[C@@H]1[C@H](OC(=O)NCCCl)CO[C@]2(COC(C)(C)O2)[C@@]1(O)C1(C)CO1` (some centres not stated) cannot be ordered by IC50: > 500 µM for the first, > 500 µM for the second.

Going from `CO[C@@H]1[C@H](OC(=O)NC(=O)CCl)CO[C@]2(COC(C)(C)O2)[C@@]1(OC)C1(C)CO1` (some centres not stated) to `CO[C@@H]1[C@H](OC(=O)NC(=O)CCl)CO[C@]2(COC(C)(C)O2)[C@@]1(O)C1(C)CO1` (some centres not stated), the IC50 rises from 39 µM to 84 µM (2.2-fold).

First: CO[C@@H]1[C@H](OC(=O)/C=C/C=C/C=C/C=C/C(=O)O)CC[C@]2(CO2)[C@H]1[C@@]1(C)O[C@@H]1CC=C(C)C [FUMAGILLIN]
Second: CO[C@@H]1[C@H](OC(=O)NC(=O)CCl)CC[C@]2(CO2)[C@H]1[C@@]1(C)O[C@@H]1CC=C(C)C [O-CHLOROACETYLCARBAMOYLFUMAGILLOL]
The IC50 of the first is 9.1-fold higher: 48 µM for the first, 5.3 µM for the second.

Going from `CO[C@@H]1[C@H](OC(=O)NC(=O)CCl)CO[C@]2(COC(C)(C)O2)[C@@]1(OC(=O)NC(=O)CCl)C(C)C` to `CO[C@@H]1[C@H](OC(=O)NC(=O)CCl)CO[C@]2(COC(C)(C)O2)[C@@]1(OC(=O)NC(=O)CCl)C1(C)CO1` (some centres not stated), the IC50 rises from 5.6 µM to 38 µM (6.8-fold). The first is the more potent here.

Compared with `CO[C@@H]1[C@H](OC(=O)NC(=O)c2ccccc2)CO[C@]2(COC(C)(C)O2)[C@@]1(O)C1(C)CO1` (some centres not stated), `CO[C@@H]1[C@H](OC(=O)NC(=O)CCl)CO[C@]2(COC(C)(C)O2)[C@@]1(O)C1OC1CCCc1ccccc1` (some centres not stated) is lower in IC50: > 500 µM for the first, 19 µM for the second. The second is the more potent here.

Going from `CO[C@@H]1C(=O)CC[C@]2(CO2)[C@@]1(O)[C@@]1(C)O[C@@H]1CC=C(C)C` [OVALICIN] to `CO[C@@H]1C(=O)CO[C@]2(COC(C)(C)O2)[C@@]1(O)C1(C)CO1` (some centres not stated), the IC50 rises from 7.5 µM to > 500 µM.

`CCOC(=O)NC(=O)O[C@@H]1CO[C@]2(COC(C)(C)O2)[C@@](O)(C2OC2CC(C)C)[C@@H]1OC` (some centres not stated) and `CCOC(=O)CNC(=O)O[C@@H]1CO[C@]2(COC(C)(C)O2)[C@@](O)(C2OC2CC(C)C)[C@@H]1OC` (some centres not stated) are within 1.5-fold of each other in IC50: 471 µM for the first, 442 µM for the second.

Compared with `CO[C@@H]1[C@H](OC(=O)NC(=O)CCl)CO[C@]2(COC(C)(C)O2)[C@]1(CCCCCc1ccccc1)OC(=O)NC(=O)CCl`, `CO[C@@H]1[C@H](OC(=O)NC(=O)CCl)CO[C@]2(COC(C)(C)O2)[C@@]1(OC(=O)NC(=O)CCl)C1OC1CCCc1ccccc1` (some centres not stated) is 3.1-fold higher in IC50: 1.2 µM for the first, 3.7 µM for the second. The first is the more potent here.

Going from `CO[C@@H]1[C@H](OC(=O)NC(=O)CCl)CO[C@]2(COC(C)(C)O2)[C@@]1(O)C1OC1CC(C)C` (some centres not stated) to `C=C(C)[C@@]1(O)[C@H](OC)[C@H](OC)CO[C@]12CO2`, the IC50 rises from 44 µM to > 500 µM.

same assay, conditions: a-431

Work on `CO[C@@H]1[C@H](OC(=O)NC(=O)CCl)CO[C@]2(COC(C)(C)O2)[C@@]1(O)C1OC1CCCc1ccccc1` (some centres not stated) yielded an IC50 of 29 µM.

species: Gallus gallus; assay: Antiangiogenic activity using CAM assay, activity expressed as % of eggs with avascular zone (125 nM).; format: functional; conditions: not given

First: CO[C@@H]1[C@H](OC(=O)NC(=O)CCl)CO[C@]2(COC(=O)O2)[C@@]1(O)CCCCCc1ccccc1
Second: CO[C@@H]1[C@H](OC(=O)NC(=O)CCl)CO[C@]2(COC(=O)O2)[C@]1(CCCCCc1ccccc1)OC(=O)NC(=O)CCl
The Eggs of the first is higher: 95% for the first, 80% for the second.

Compared with `CNC(=O)O[C@@H]1CO[C@]2(COC(C)(C)O2)[C@@](O)(C2(C)CO2)[C@@H]1OC` (some centres not stated), `CO[C@@H]1[C@H](OC(=O)NCCCl)CO[C@]2(COC(C)(C)O2)[C@@]1(O)C1(C)CO1` (some centres not stated) is lower in Eggs: 51% for the first, 10% for the second.

First: CO[C@@H]1[C@H](OC(=O)NC(=O)CCl)CO[C@]2(COC(C)(C)O2)[C@@]1(OC)C1(C)CO1 (some centres not stated)
Second: CO[C@@H]1[C@H](OC(=O)NC(=O)CCl)CO[C@]2(COC(C)(C)O2)[C@@]1(O)C1(C)CO1 (some centres not stated)
The Eggs of the first is lower: 16% for the first, 84% for the second.

First: CO[C@@H]1[C@H](OC(=O)/C=C/C=C/C=C/C=C/C(=O)O)CC[C@]2(CO2)[C@H]1[C@@]1(C)O[C@@H]1CC=C(C)C [FUMAGILLIN]
Second: CO[C@@H]1[C@H](OC(=O)NC(=O)CCl)CC[C@]2(CO2)[C@H]1[C@@]1(C)O[C@@H]1CC=C(C)C [O-CHLOROACETYLCARBAMOYLFUMAGILLOL]
The Eggs of the first is lower: 80% for the first, 85% for the second.

Compared with `CO[C@@H]1[C@H](OC(=O)NC(=O)CCl)CO[C@]2(COC(C)(C)O2)[C@@]1(OC(=O)NC(=O)CCl)C(C)C`, `CO[C@@H]1[C@H](OC(=O)NC(=O)CCl)CO[C@]2(COC(C)(C)O2)[C@@]1(OC(=O)NC(=O)CCl)C1(C)CO1` (some centres not stated) is lower in Eggs: 95% for the first, 62% for the second.

Compared with `CO[C@@H]1[C@H](OC(=O)NC(=O)c2ccccc2)CO[C@]2(COC(C)(C)O2)[C@@]1(O)C1(C)CO1` (some centres not stated), `CO[C@@H]1C(=O)CO[C@]2(COC(C)(C)O2)[C@@]1(O)C1(C)CO1` (some centres not stated) is lower in Eggs: 55% for the first, 48% for the second.

Compared with `CCOC(=O)NC(=O)O[C@@H]1CO[C@]2(COC(C)(C)O2)[C@@](O)(C2OC2CC(C)C)[C@@H]1OC` (some centres not stated), `CCOC(=O)CNC(=O)O[C@@H]1CO[C@]2(COC(C)(C)O2)[C@@](O)(C2OC2CC(C)C)[C@@H]1OC` (some centres not stated) is higher in Eggs: 11% for the first, 21% for the second.

Going from `CO[C@@H]1[C@H](OC(=O)NC(=O)CCl)CO[C@]2(COC(C)(C)O2)[C@]1(CCCCCc1ccccc1)OC(=O)NC(=O)CCl` to `CO[C@@H]1[C@H](OC(=O)NC(=O)CCl)CO[C@]2(COC(C)(C)O2)[C@@]1(OC(=O)NC(=O)CCl)C1OC1CCCc1ccccc1` (some centres not stated), the Eggs falls from 88% to 63%.

`C=C(C)[C@@]1(O)[C@H](OC)[C@H](OC)CO[C@]12CO2` gave an Eggs of 32%.

With `CO[C@@H]1[C@H](OC(=O)NC(=O)CCl)CO[C@]2(COC(C)(C)O2)[C@@]1(O)C1OC1CCCc1ccccc1` (some centres not stated) the Eggs was 79% and 76%.
With `CO[C@@H]1[C@H](OC(=O)NC(=O)CCl)CO[C@]2(COC(C)(C)O2)[C@@]1(O)C1OC1CC(C)C` (some centres not stated) the Eggs was 75% and 68%.

system: not listed separately; assay: Compound was tested for antiproliferative effect against primary endothelial cells from pork aorta(ECPA) with first-phase IC50 of 0.1 nM; conditions: Sus scrofa, Endothelial cell

`CO[C@@H]1[C@H](OC(=O)/C=C/C=C/C=C/C=C/C(=O)O)CC[C@]2(CO2)[C@H]1[C@@]1(C)O[C@@H]1CC=C(C)C` [FUMAGILLIN] gave an IC50 of 100 µM.

system: not listed separately; assay: Compound was tested for antiproliferative effect against primary endothelial cells from pork aorta(ECPA) with first-phase IC50 of 0.001 nM; conditions: Sus scrofa, Endothelial cell

`CO[C@@H]1[C@H](OC(=O)NC(=O)CCl)CC[C@]2(CO2)[C@H]1[C@@]1(C)O[C@@H]1CC=C(C)C` [O-CHLOROACETYLCARBAMOYLFUMAGILLOL] gave an IC50 of 12 µM.

system: not listed separately; assay: Antiproliferative effect against primary endothelial cells from pork aorta(ECPA); format: functional, cell-based, Sus scrofa, Endothelial cell; conditions: Sus scrofa, Endothelial cell

`CNC(=O)O[C@@H]1CO[C@]2(COC(C)(C)O2)[C@@](O)(C2(C)CO2)[C@@H]1OC` (some centres not stated) and `CO[C@@H]1[C@H](OC(=O)NCCCl)CO[C@]2(COC(C)(C)O2)[C@@]1(O)C1(C)CO1` (some centres not stated) are within 1.5-fold of each other in IC50: 195 µM for the first, 278 µM for the second.

Going from `CO[C@@H]1[C@H](OC(=O)NC(=O)CCl)CO[C@]2(COC(C)(C)O2)[C@@]1(OC)C1(C)CO1` (some centres not stated) to `CO[C@@H]1[C@H](OC(=O)NC(=O)CCl)CO[C@]2(COC(C)(C)O2)[C@@]1(O)C1(C)CO1` (some centres not stated), the IC50 falls from 175 µM to 57 µM (3.1-fold). The second is the more potent here.

First: CO[C@@H]1[C@H](OC(=O)NC(=O)CCl)CO[C@]2(COC(C)(C)O2)[C@@]1(OC(=O)NC(=O)CCl)C(C)C
Second: CO[C@@H]1[C@H](OC(=O)NC(=O)CCl)CO[C@]2(COC(C)(C)O2)[C@@]1(OC(=O)NC(=O)CCl)C1(C)CO1 (some centres not stated)
The IC50 of the first is 5.3-fold lower: 23 µM for the first, 122 µM for the second. The first is the more potent here.

Compared with `CO[C@@H]1[C@H](OC(=O)NC(=O)c2ccccc2)CO[C@]2(COC(C)(C)O2)[C@@]1(O)C1(C)CO1` (some centres not stated), `CO[C@@H]1[C@H](OC(=O)NC(=O)CCl)CO[C@]2(COC(C)(C)O2)[C@@]1(O)C1OC1CCCc1ccccc1` (some centres not stated) is 5.3-fold lower in IC50: 363 µM for the first, 68 µM for the second. The second is the more potent here.

Going from `CO[C@@H]1[C@H](OC(=O)NC(=O)CCl)CO[C@]2(COC(=O)O2)[C@]1(CCCCCc1ccccc1)OC(=O)NC(=O)CCl` to `CO[C@@H]1[C@H](OC(=O)NC(=O)CCl)CO[C@]2(COC(C)(C)O2)[C@]1(CCCCCc1ccccc1)OC(=O)NC(=O)CCl`, the IC50 falls from 2.4 µM to 0.8 µM (3-fold).

`CCOC(=O)NC(=O)O[C@@H]1CO[C@]2(COC(C)(C)O2)[C@@](O)(C2OC2CC(C)C)[C@@H]1OC` (some centres not stated) and `CCOC(=O)CNC(=O)O[C@@H]1CO[C@]2(COC(C)(C)O2)[C@@](O)(C2OC2CC(C)C)[C@@H]1OC` (some centres not stated) are within 1.5-fold of each other in IC50: 398 µM for the first, 343 µM for the second.

`CO[C@@H]1C(=O)CO[C@]2(COC(C)(C)O2)[C@@]1(O)C1(C)CO1` (some centres not stated) and `CO[C@@H]1[C@H](OC(=O)NC(=O)CCl)CO[C@]2(COC(C)(C)O2)[C@@]1(O)C1OC1CC(C)C` (some centres not stated) are within 1.5-fold of each other in IC50: 119 µM for the first, 124 µM for the second.

First: CO[C@@H]1[C@H](OC(=O)NC(=O)CCl)CO[C@]2(COC(C)(C)O2)[C@@]1(OC(=O)NC(=O)CCl)C1OC1CCCc1ccccc1 (some centres not stated)
Second: C=C(C)[C@@]1(O)[C@H](OC)[C@H](OC)CO[C@]12CO2
The IC50 of the first is lower: 16 µM for the first, > 500 µM for the second.

same assay, conditions: endothelial cell

Going from `CO[C@@H]1[C@H](OC(=O)NC(=O)CCl)CO[C@]2(COC(C)(C)O2)[C@@]1(O)C1OC1CCCc1ccccc1` (some centres not stated) to `CO[C@@H]1[C@H](OC(=O)NC(=O)CCl)CO[C@]2(COC(C)(C)O2)[C@@]1(O)C1OC1CC(C)C` (some centres not stated), the IC50 rises from 90 µM to 178 µM (2-fold). The first is the more potent here.

system: not listed separately; assay: Compound was tested for antiproliferative effect against primary endothelial cells from pork aorta (ECPA) with first-phase IC50 of 0.1 nM; conditions: Sus scrofa, Endothelial cell

Compound `CO[C@@H]1C(=O)CC[C@]2(CO2)[C@@]1(O)[C@@]1(C)O[C@@H]1CC=C(C)C` [OVALICIN] has an IC50 of 10 µM.

system: not listed separately; assay: Compound was tested for antiproliferative effect against primary endothelial cells from pork aorta(ECPA); format: functional, cell-based; conditions: Sus scrofa, Endothelial cell

Work on `CO[C@@H]1[C@H](OC(=O)NC(=O)CCl)CO[C@]2(COC(=O)O2)[C@@]1(O)CCCCCc1ccccc1` yielded an IC50 of 14 µM.
